# Assay results reported in patent US6455522B1, “Cyclic sulfonamide derivatives as metalloproteinase inhibitors” (Bristol-Myers Squibb Pharma Company, priority 1998, dated 2002).
# System: cartilage degradation
# Assay: Acute Cartilage Degradation Rat Model
# Assay type: in vivo
# Settings: rats, after compound administration
# Excerpt: A novel in vivo model of acute cartilage degradation in rats has been characterized as a method to determine the proteoglycan content in the synovial fluid after the induction of cartilage degradation.
smiles,measurement,value
COc1ccc2c(c1)c(CC(=O)O)c(C)n2C(=O)c1ccc(Cl)cc1 [Indomethacin],"ability to inhibit the demonstration of cartilage degradation, as measured by increased proteoglycan content in the synovial fluid",inactive
